Consider one molecule from patent US9656981B2, “Peripherally-acting cannabinoid receptor agonists for chronic pain” (The Regents of the University of California, priority 2012, dated 2017).

Read-outs that look alike come from different tables or passages of the source.

A short description of data set [1]: Pharmacokinetic profiling: plasma, CSF and brain levels by LC-MS/MS. It counts as in vivo, rat. Here is the method: Pharmacokinetic profiling of novel compounds is prerequisite to their clinical development. […] Plasma, cerebrospinal fluid (CSF), and brain samples were analyzed by LC-MS/MS and quantified using standard curves prepared from appropriate drug dilutions in fluids obtained from untreated animals.
Measurements of brain levels are a must for putative peripherally-restricted analogs. Total brain levels include drug partitioned into brain lipids+unbound drug in equilibrium with extracellular fluid. Therefore, cerebrospinal fluid (CSF)/plasma ratios are considered to be more precise estimates of brain penetration of a given drug because of the continuity of CSF with extracellular space^174. However, both measures are needed to confirm minimal CNS access and to compare with other reported peripherally-restricted CB1R ligands^110, 111. […] Plasma, brain and CSF samples were obtained at ˜75 min after PrNMI administration. Data presented as mean±SEM, n=3 rats.

For data set [2], the system named is CFA-induced mechanical allodynia. Kind of data set: CFA chronic inflammation, mechanical allodynia. The settings on record: systemic injection. The class given is in vivo, rat. The procedure:
Rats are placed in a plastic-walled cage (10×20×13 cm) with a metal mesh floor (0.6×0.6 cm holes) and allowed to acclimate for 10 min. The amount of pressure (g) needed to evoke a hindpaw withdrawal response is measured 4 times on each paw separated by 30-s intervals using a von Frey-type digital meter (Model 1601C, IITC Instr.). Results of 4 tests/session are averaged for each paw.
Compounds were tested in a well-established model of chronic inflammation. In this model, unilateral intraplantar injection of complete Freund's adjuvant (CFA) leads to long-lasting symptoms of mechanical allodynia and thermal hyperalgesia of the affected hindpaw, which is alleviated by local, […] administration of CB1R ligands^125, 155. […] This is consistent with the higher CB1R affinity of our novel compound 13339-145-35 (Compound 9, see Table 1) compared with the AstraZeneca AZ11713908 compound^125.

Another data set has as its target CB1R (Homo sapiens, UniProt P21554). Kind of data set: CB1R radioligand displacement binding assay (CP55940 radioligand). The procedure: Heterologous competition binding assays were performed to calculate receptor affinities. Unlabeled SR141716 or SR144528 were used as appropriate controls for non-specific binding (NSB) in the assay. Calculation of the equilibrium dissociation constant (Ki) was performed using the Cheng-Prusoff equation.
For orientation: Loss of bound radioactivity is the signal in a displacement assay; it reports binding, not function.

Chain of CB1R (P21554 whole entry): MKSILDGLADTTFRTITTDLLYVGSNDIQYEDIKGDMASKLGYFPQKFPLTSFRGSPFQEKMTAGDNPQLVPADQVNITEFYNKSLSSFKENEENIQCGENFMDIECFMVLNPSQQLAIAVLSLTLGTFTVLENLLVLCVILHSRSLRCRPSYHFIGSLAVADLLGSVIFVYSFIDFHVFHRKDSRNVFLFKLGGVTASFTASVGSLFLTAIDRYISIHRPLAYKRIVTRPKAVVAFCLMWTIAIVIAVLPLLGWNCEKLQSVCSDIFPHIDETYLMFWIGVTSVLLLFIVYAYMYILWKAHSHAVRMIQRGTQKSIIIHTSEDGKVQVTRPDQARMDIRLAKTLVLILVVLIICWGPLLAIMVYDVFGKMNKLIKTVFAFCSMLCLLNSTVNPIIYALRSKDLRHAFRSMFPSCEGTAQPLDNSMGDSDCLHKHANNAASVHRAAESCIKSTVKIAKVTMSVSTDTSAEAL

The term Kp denotes the ratio of the level in a tissue or fluid to that in plasma or blood. By Ki is commonly meant the equilibrium dissociation constant of an inhibitor or competing ligand from its target. With `CCCc1ccc(/C=C2\C=C(CCN3CCOCC3)c3ccccc32)c2ccccc12` [Compound 9, 4-{2-[(1E)-1-[(4-propylnaphthalen-1-yl)methylidene]-1H-inden-3-yl]ethyl} morpholine], the “penetration into the CNS after systemic administration” value in data set [1] (plasma, brain and CSF samples) is “minimal penetration”. This molecule yielded a Kp in data set [1] (rat, CSF and plasma, intraperitoneal, 0.3 mg/kg, i.p., ~75 min after administration, mean±SEM, n=3 rats) of 0.001 ± 0.0005. Moreover, in data set [1] (rat, brain and plasma, ip, 0.3 mg/kg, i.p., ~75 min after administration, mean±SEM, n=3 rats), the Kp at 1.25 h was 0.182 ± 0.043. The “effect on CFA-induced mechanical allodynia” value in data set [2] is reported as “small but significant relief”. Further, the Ki came out at 1 nM on CB1R and 1.18 nM on CB1R (read-out: CB1R binding affinity (Ki)).
